Experiment [1] can be described thus: Pilot study of long term effects of D-tagatose in humans with type-2 diabetes (University of Maryland). In kind it is in vivo. The following applies: long term treatment; each of the subjects, both the patients (type-2 diabetes) and the controls. Here is the method:
U.S. Pat. No. 5,447,917 discloses and claims a method for treating diabetes by administering to a mammal an amount of D-tagatose effective to inhibit the rise in blood sugar associated with the consumption of sugar. A pilot study was conducted at the University of Maryland to investigate the long term effects of D-tagatose in humans with type-2 diabetes.

Experiment [2] is described as follows: Example 1: tagatose given to a human patient with lowered HDL level. The class given is in vivo. The following applies: 15 grams with each of three meals per day, after six months. The text has this:
A human patient is diagnosed as having a lowered HDL level than that found in a previous visit. The physician is concerned that this may forecast atherosclerosis, possibly leading to a heart attack, or to a stroke. The physician prescribes that the patient take 15 grams of tagatose with each of three meals per day. […] The physician is satisfied with the improvement and prescribes continued […] doses of tagatose per meal as a means of maintaining and improving the patient's cardiovascular health.

Each structure is given as a SMILES string.

`O=C(CO)[C@@H](O)[C@@H](O)[C@H](O)CO` [D-tagatose]: the HDL-cholesterol levels result in experiment [1] is “increase in HDL-cholesterol levels”.

As for `O=C(CO)[C@@H](O)[C@@H](O)[C@H](O)CO` [tagatose], the “patient's HDL level versus immediately before treatment” value in experiment [2] was “significantly higher”.

The values above are taken from patent publication US20020137725A1, “Use of tagatose in promoting cardiovascular health” (priority 2001, published 2002).
